Laboratory results taken from patent US10682345B2, “Muscarinic antagonists and combinations thereof for the treatment of airway disease in horses” (Boehringer Ingelheim Vetmedica GmbH, priority 2014, dated 2020).

Experiments:
RAO horses [1] = experiment: Phase II: cross-over, blinded mouldy hay challenge study, 7 days treatment; type: in vivo, horse; conditions: for EL values over time / ΔPL values over time: Days 4 and 8 compared to Day 1; for RL values over time: clenbuterol group and 800 μg LAMA 1 group
Procedure: LAMA 1 is investigated in a cross-over, blinded mouldy hay challenge study. 8 RAO horses are examined in the study, which is divided into an acclimation and a treatment phase. Placebo for LAMA 1 is administered once daily per inhalation via the Equine Inhaler device to all horses for 1 week in the acclimation period. LAMA 1 and clenbuterol are administered to the horses in a cross-over design in the treatment phase. The horses are challenged by exposure to mouldy hay throughout the acclimation and treatment phases. LAMA 1 is administered with the doses of 200 μg (2 actuations)/400 μg (4 actuations)/800 μg (8 actuations)/horse (ex-RESPIMAT®) once daily for 7 days per inhalation via the Equine Inhaler device. Nozzle A and a commercially available RESPIMAT® is used in the study. Clenbuterol is administered with a dose of 0.8 μg/kg per os, twice daily for 7 days. Lung function variables (change in transpulmonary pressure (ΔPL), lung resistance (RL) and lung elastance (EL)), breathing effort score, Borborygmi score, blood gas analysis are examined during the study.

RAO horses [2] = experiment: Phase I and IV: mouldy hay challenge, single inhaled administration, lung function for 24 h; type: in vivo, horse
Procedure: LAMA 1 is investigated in two RAO horses at different phases or periods as part of a mouldy hay challenge study. The horses are challenged every day by exposure to mouldy hay. LAMA 1 is administered via the Equine Inhaler device at different doses or formulations. Lung function parameters (change in transpulmonary pressure (ΔPL), lung resistance (RL) and lung elastance (EL)) are measured for 24 h. A single administration of 800 μg LAMA 1 (8 actuations in aqueous formulation) is performed per inhalation to two RAO horses (ID numbers: 312 and 91) in phase I. Two RAO horses are treated with LAMA 1 in phase IV (ID numbers: 40 and 91), which can be divided into three periods. 2000 μg LAMA 1 (20 actuations in aqueous formulation) is administered per inhalation in period 1. 2000 μg LAMA 1 ([…] in ethanolic formulation) is administered per inhalation in period 2. 2000 μg LAMA 1 (20 actuations in ethanolic formulation) is administered per inhalation in period 3.

healthy horses = experiment: Phase III: ECG measurements for 48 h after single inhalation; type: in vivo, horse; conditions: single 800 μg inhalation, aqueous formulation, two healthy horses
Procedure: A single administration of 800 μg LAMA 1 (8 actuations in aqueous formulation) is performed per inhalation to two healthy horses in phase III. Subsequently, ECG measurements are done for 48 h.

[3] = Kallos-Pagel Model, effects vs. tiotropium; type: in vivo
Hm3 = Hm3 (Homo sapiens, UniProt P20309); experiment: Binding to Hm3 receptor (mean KD, dissociation half-life)
[4] = 800 μg group, Day 7 compared to Day 0
[5] = day 4, all LAMA 1 groups (200, 400, 800 μg)

Sequence of Hm3 (P20309 whole entry): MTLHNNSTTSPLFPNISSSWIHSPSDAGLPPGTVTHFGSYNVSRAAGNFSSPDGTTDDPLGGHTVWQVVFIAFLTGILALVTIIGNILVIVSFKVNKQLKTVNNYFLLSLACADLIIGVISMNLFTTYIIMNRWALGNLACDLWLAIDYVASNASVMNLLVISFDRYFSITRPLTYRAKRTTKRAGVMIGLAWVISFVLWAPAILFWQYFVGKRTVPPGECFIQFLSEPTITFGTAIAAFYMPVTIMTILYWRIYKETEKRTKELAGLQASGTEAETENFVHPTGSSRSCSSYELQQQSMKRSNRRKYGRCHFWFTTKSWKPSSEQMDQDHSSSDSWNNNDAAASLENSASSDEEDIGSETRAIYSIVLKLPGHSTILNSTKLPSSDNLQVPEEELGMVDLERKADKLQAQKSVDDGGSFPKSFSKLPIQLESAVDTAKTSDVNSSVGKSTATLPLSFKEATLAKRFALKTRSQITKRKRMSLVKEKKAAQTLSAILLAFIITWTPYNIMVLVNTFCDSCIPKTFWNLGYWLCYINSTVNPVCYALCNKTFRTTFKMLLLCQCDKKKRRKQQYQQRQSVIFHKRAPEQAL

Structure (SMILES) | pH in arterial blood (RAO horses [1]; [4]) | paCO2 in arterial blood (RAO horses [1]; [4]) | EL values over time (RAO horses [1]) | ΔPL values over time (RAO horses [1]) | Improvement in lung function after one week, compared with clenbuterol (RAO horses [1]; LAMA 1 once daily for one week, clenbuterol twice daily for one week) | RL values over time (RAO horses [1]) | Change in EL 30 min after administration (RAO horses [1]; day 4, 200 and 400 μg LAMA 1) | Change in ΔPL 30 min after administration (RAO horses [1]; day 4, 200 and 400 μg LAMA 1) | EL 30 min after administration vs pre-treatment (RAO horses [1]; [5]) | RL 30 min after administration vs pre-treatment (RAO horses [1]; [5]) | ΔPL 30 min after administration vs pre-treatment (RAO horses [1]; [5]) | Lung function variables at 24 h after single administration (RAO horses [2]; 24 h, compared with pre-treatment values) | Time until which lung function values continue to drop (RAO horses [2]; depending on lung function parameter, dose or formulation) [h] | Start of decrease in lung function variables (ΔPL, RL, EL) after administration (RAO horses [2]; single inhalation of 800 μg or 2000 μg, aqueous or ethanolic formulation) [min] | ECG: abnormal observation (healthy horses) | ECG: arrhythmias (healthy horses) | Effects in the Kallos-Pagel Model: protection ([3]; acute and chronic) [h] | Effects in the Kallos-Pagel Model vs. tiotropium: lower efficacy (chronic) ([3]; chronic, vs. tiotropium) [fold] | Kd (Hm3) [nM] | Breathing effort score (RAO horses [1]; study day 6, clenbuterol 0.8 μg/kg per os twice daily compared with 2 or 4 actuations of LAMA 1)
CC(C(=O)O[C@H]1CC2C3O[C@@H]3[C@H](C1)[N+]2(C)C)(c1ccccc1)c1ccccc1 (stereo partly drawn) [LAMA 1, (1α,2β,4β,5α,7β)-3-Oxa-9-azoniatricyclo [3.3.1.0^2.4] nonane, 9,9-dimethyl-7-(1-oxo-2,2-diphenylpropoxy)-bromide] | increases | reduces significantly | None of the treatments (LAMA 1 or clenbuterol) alters significantly | None of the treatments (LAMA 1 or clenbuterol) alters significantly | comparable to the significant improvement in lung function after the twice daily administration of clenbuterol | significantly reduced | statistically significant | statistically significant | decrease | decrease | decrease | below or reach the pre-treatment values | 2 to 8 | 5 | Only one observation is classified as either a first-degree heart block with aberrant intraventricular repolarization, or an artifact | Physiological arrhythmias are noted in both horses before and following the administration | 24 | 10 | 0.4 | –
CC(C)(C)NCC(O)c1cc(Cl)c(N)c(Cl)c1 (centres unmarked) [clenbuterol, reference compound] | – | – | None of the treatments (LAMA 1 or clenbuterol) alters significantly | None of the treatments (LAMA 1 or clenbuterol) alters significantly | – | significantly reduced | – | – | – | – | – | – | – | – | – | – | – | – | – | significantly smaller breathing effort scores
